PubChem BioAssay AID1259407 (Chemical Carcinogenesis Research Information System (CCRIS), 2018)
The source made the active and inactive calls. The rule behind the calls is not given here.

System: CCRIS mutagenicity, Ames/micronucleus/aberration tests
Assay: CCRIS mutagenicity studies
From the text: The CCRIS database contains chemical records with carcinogenicity, mutagenicity, tumor promotion, and tumor inhibition test results. It was developed by the National Cancer Institute (NCI). Data are derived from studies cited in primary journals, current awareness tools, NCI reports, and other sources. Test results have been reviewed by experts in carcinogenesis and mutagenesis.
CCRIS provides historical information from the years 1985 - 2011. It is no longer updated.
This is an archive assay for CCRIS mutagenicity studies.

[1] = Test System: AMES SALMONELLA TYPHIMURIUM, Strain/Indicator: TA98, Metabolic Activation: RAT, LIVER, S-9, AROCLOR 1254, Method: STANDARD PLATE
[2] = Test System: AMES SALMONELLA TYPHIMURIUM, Strain/Indicator: TA100, Metabolic Activation: RAT, LIVER, S-9, AROCLOR 1254, Method: STANDARD PLATE

SMILES: Nc1ccc(/C=C/c2ccccc2)cc1
- mutagenic call (Test System: AMES SALMONELLA TYPHIMURIUM, Strain/Indicator: TA98(1,8-DNP6), Metabolic Activation: NONE, Method: STANDARD PLATE): inactive; negative
- mutagenic call (Test System: AMES SALMONELLA TYPHIMURIUM, Strain/Indicator: TA98(1,8-DNP6), Metabolic Activation: S-9, Method: STANDARD PLATE): active; positive
- mutagenic call (Test System: AMES SALMONELLA TYPHIMURIUM, Strain/Indicator: TA98, Metabolic Activation: RAT LIVER S9, AROCLOR, Method: STANDARD PLATE): active; positive
- mutagenic call [1]: active; positive
- mutagenic call (Test System: AMES SALMONELLA TYPHIMURIUM, Strain/Indicator: TA98, Metabolic Activation: S-9, Method: STANDARD PLATE): active; positive
- mutagenic call (Test System: AMES SALMONELLA TYPHIMURIUM, Strain/Indicator: TA100, Metabolic Activation: NONE, Method: STANDARD PLATE): inactive; negative
- mutagenic call (Test System: AMES SALMONELLA TYPHIMURIUM, Strain/Indicator: TA100, Metabolic Activation: RAT, LIVER, S9, AROCLOR, Method: STANDARD PLATE): active; positive
- mutagenic call [2]: active; positive
- mutagenic call (Test System: AMES SALMONELLA TYPHIMURIUM, Strain/Indicator: TA100, Metabolic Activation: RAT, LIVER, S-9, PHENOBARBITAL, Method: STANDARD PLATE): active; positive
- mutagenic call (Test System: AMES SALMONELLA TYPHIMURIUM, Strain/Indicator: TA100, Metabolic Activation: S-9, Method: STANDARD PLATE): active; positive
- mutagenic call (Test System: AMES SALMONELLA TYPHIMURIUM, Strain/Indicator: TA1538, Metabolic Activation: RAT, LIVER, S-9, PHENOBARBITAL, Method: STANDARD PLATE): active; positive

SMILES: C[C@H]1CCCC(=O)CCC/C=C/c2cc(O)cc(O)c2C(=O)O1
- mutagenic call (End Point: IN VITRO CHROMOSOMAL ABERRATIONS, Test System: BOVINE LYMPHOCYTES, Metabolic Activation: NONE): active; positive (structural changes)
- mutagenic call (End Point: In vitro chromosomal aberrations, Test System: Green monkey kidney (Vero) cells, Metabolic Activation: None): active; positive (structural changes)
- mutagenic call (End Point: In vitro chromosomal aberrations, Test System: Monkey kidney Vero cells, Metabolic Activation: None): active; positive
- mutagenic call (End Point: In vitro micronucleus, Test System: Green monkey kidney (Vero) cells, Metabolic Activation: None): active; positive
- mutagenic call (End Point: In vivo chromosomal aberrations, Test System: Bone marrow cells, Species: Mouse, Strain/Sex: Balb/C/Female, Route: Oral): active; positive (structural changes) (effect diminished by administering clay)
- mutagenic call (End Point: In vivo chromosomal aberrations, Test System: Bone marrow erythrocytes, Species: Mouse, Strain/Sex: Balb/C, Route: Intraperitoneal): active; positive (structural changes)
- mutagenic call (End Point: In vivo micronucleus, Test System: Bone marrow cells, Species: Mouse, Strain/Sex: Balb/C/Female, Route: Oral): active; positive (effect diminished by administering clay)
- mutagenic call (End Point: In vivo micronucleus, Test System: Bone marrow erythrocytes, Species: Mouse, Strain/Sex: Balb/C, Route: Intraperitoneal): active; positive (p<0.05)
- mutagenic call (End Point: UDS Monkey kidney Vero cells, Strain/Indicator: Thymidine incorporation, Metabolic Activation: None, Method: Liquid scintillation counting): active; positive. prevented by vitamin e at 25 um.
- mutagenic call (Test System: AMES SALMONELLA TYPHIMURIUM, Strain/Indicator: TA98, Metabolic Activation: HAMSTER, LIVER, S-9, AROCLOR 1254, Method: STANDARD PLATE): inactive; negative
- mutagenic call (Test System: AMES SALMONELLA TYPHIMURIUM, Strain/Indicator: TA98, Metabolic Activation: NONE, Method: STANDARD PLATE): inactive; negative
- mutagenic call (Test System: AMES SALMONELLA TYPHIMURIUM, Strain/Indicator: TA98, Metabolic Activation: RAT, LIVER, MICROSOMES, PHENOBARBITAL, Method: STANDARD PLATE): inactive; negative
- mutagenic call [1]: inactive; negative
- mutagenic call (Test System: AMES SALMONELLA TYPHIMURIUM, Strain/Indicator: TA98, Metabolic Activation: RAT, LIVER, S-9, Method: STANDARD PLATE): inactive; negative
- mutagenic call (Test System: AMES SALMONELLA TYPHIMURIUM, Strain/Indicator: TA100, Metabolic Activation: HAMSTER, LIVER, S-9, AROCLOR 1254, Method: STANDARD PLATE): inactive; negative
- mutagenic call (Test System: AMES SALMONELLA TYPHIMURIUM, Strain/Indicator: TA100, Metabolic Activation: NONE, Method: PREINCUBATION): inactive; negative
- mutagenic call (Test System: AMES SALMONELLA TYPHIMURIUM, Strain/Indicator: TA100, Metabolic Activation: RAT, LIVER, MICROSOMES, PHENOBARBITAL, Method: STANDARD PLATE): inactive; negative
- mutagenic call [2]: inactive; negative
- mutagenic call (Test System: AMES SALMONELLA TYPHIMURIUM, Strain/Indicator: TA100, Metabolic Activation: RAT, LIVER, S-9, PHENOBARBITAL, Method: PREINCUBATION): inactive; negative
- mutagenic call (Test System: AMES SALMONELLA TYPHIMURIUM, Strain/Indicator: TA100, Metabolic Activation: RAT, LIVER, S-9, Method: STANDARD PLATE): inactive; negative; toxicity at 1000 ug/plate
- mutagenic call (Test System: AMES SALMONELLA TYPHIMURIUM, Strain/Indicator: TA1535, Metabolic Activation: HAMSTER, LIVER, S-9, AROCLOR 1254, Method: STANDARD PLATE): inactive; negative
- mutagenic call (Test System: AMES SALMONELLA TYPHIMURIUM, Strain/Indicator: TA1535, Metabolic Activation: NONE, Method: STANDARD PLATE): inactive; negative
- mutagenic call (Test System: AMES SALMONELLA TYPHIMURIUM, Strain/Indicator: TA1535, Metabolic Activation: RAT, LIVER, S-9, AROCLOR 1254, Method: STANDARD PLATE): inactive; negative
- mutagenic call (Test System: AMES SALMONELLA TYPHIMURIUM, Strain/Indicator: TA1535, Metabolic Activation: RAT, LIVER, S-9, Method: STANDARD PLATE): inactive; negative
- mutagenic call (Test System: AMES SALMONELLA TYPHIMURIUM, Strain/Indicator: TA1537, Metabolic Activation: HAMSTER, LIVER, S-9, AROCLOR 1254, Method: STANDARD PLATE): inactive; negative
- mutagenic call (Test System: AMES SALMONELLA TYPHIMURIUM, Strain/Indicator: TA1537, Metabolic Activation: NONE, Method: STANDARD PLATE): inactive; negative
- mutagenic call (Test System: AMES SALMONELLA TYPHIMURIUM, Strain/Indicator: TA1537, Metabolic Activation: RAT, LIVER, S-9, AROCLOR 1254, Method: STANDARD PLATE): inactive; negative
- mutagenic call (Test System: AMES SALMONELLA TYPHIMURIUM, Strain/Indicator: TA1537, Metabolic Activation: RAT, LIVER, S-9, Method: STANDARD PLATE): inactive; negative; toxicity at 500 and 1000 ug/plate
- mutagenic call (Test System: AMES SALMONELLA TYPHIMURIUM, Strain/Indicator: TA1538, Metabolic Activation: HAMSTER, LIVER, S-9, AROCLOR 1254, Method: STANDARD PLATE): inactive; negative
- mutagenic call (Test System: AMES SALMONELLA TYPHIMURIUM, Strain/Indicator: TA1538, Metabolic Activation: RAT, LIVER, S-9, AROCLOR 1254, Method: STANDARD PLATE): inactive; negative
- mutagenic call (Test System: AMES SALMONELLA TYPHIMURIUM, Strain/Indicator: TA1538, Metabolic Activation: RAT, LIVER, S-9, Method: STANDARD PLATE): inactive; negative; toxicity at 1000 ug/plate

SMILES: Cc1c(N)nc([C@H](CC(N)=O)NC[C@H](N)C(N)=O)nc1C(=O)N[C@H](C(=O)N[C@H](C)[C@@H](O)[C@H](C)C(=O)N[C@H](C(=O)NCCc1nc(-c2nc(C(=O)NCCCN(C)CCCN(Cc3ccc(OCc4ccccc4)c(OCc4ccccc4)c3)Cc3ccc(OCc4ccccc4)c(OCc4ccccc4)c3)cs2)cs1)[C@@H](C)O)[C@@H](O[C@@H]1O[C@@H](CO)[C@@H](O)[C@H](O)[C@@H]1O[C@H]1O[C@H](CO)[C@@H](O)[C@H](OC(N)=O)[C@@H]1O)c1cnc[nH]1
- mutagenic call (Test System: AMES SALMONELLA TYPHIMURIUM, Strain/Indicator: TA94, Metabolic Activation: NONE, Method: PREINCUBATION): inactive; negative
- mutagenic call (Test System: AMES SALMONELLA TYPHIMURIUM, Strain/Indicator: TA102, Metabolic Activation: NONE, Method: PREINCUBATION): active; positive

SMILES: O=C(O)[C@@H]1CSCN1
- mutagenic call (Test System: AMES SALMONELLA TYPHIMURIUM, Strain/Indicator: TA102, Metabolic Activation: NONE, Method: STANDARD PLATE): inactive; negative
- mutagenic call (Test System: AMES SALMONELLA TYPHIMURIUM, Strain/Indicator: TA102, Metabolic Activation: RAT, LIVER, S-9, PHENOBARBITAL, Method: STANDARD PLATE): inactive; negative
- mutagenic call (Test System: AMES SALMONELLA TYPHIMURIUM, Strain/Indicator: TA104, Metabolic Activation: NONE, Method: STANDARD PLATE): inactive; negative
- mutagenic call (Test System: AMES SALMONELLA TYPHIMURIUM, Strain/Indicator: TA104, Metabolic Activation: RAT, LIVER, S-9, PHENOBARBITAL, Method: STANDARD PLATE): inactive; negative
